Experiments:
HeLa [1] = test: Anticancer activity against human Hela cells assessed as inhibition rate at 30 uM by SRB assay relative to control; type: functional
A549 [2] = test: Anticancer activity against human A549 cells assessed as inhibition rate at 10 uM by SRB assay relative to control; type: functional
HeLa [3] = test: Anticancer activity against human Hela cells assessed as inhibition rate at 10 uM by SRB assay relative to control; type: functional
A549 [4] = test: Anticancer activity against human A549 cells assessed as inhibition rate at 30 uM by SRB assay relative to control; type: functional
HeLa [5] = test: Anticancer activity against human HeLa cells assessed as inhibition of cell proliferation by SRB assay; type: functional, cell-based
A549 [6] = test: Anticancer activity against human A549 cells assessed as inhibition of cell proliferation by SRB assay; type: functional, cell-based
A549 [7] = test: Induction of apoptosis in human A549 cells assessed as late apoptotic cells at 5 uM incubated for 24 hrs AnnexinV/ propidium iodide staining based flow cytometry (Rvb= 0.54 %); type: functional
A549 [8] = test: Induction of apoptosis in human A549 cells assessed as early apoptotic cells at 5 uM incubated for 24 hrs AnnexinV/ propidium iodide staining based flow cytometry (Rvb= 0.79 %); type: functional
A549 [9] = test: Induction of apoptosis in human A549 cells assessed as late apoptotic cells at 2.5 uM incubated for 24 hrs AnnexinV/ propidium iodide staining based flow cytometry (Rvb= 0.54 %); type: functional
A549 [10] = test: Induction of apoptosis in human A549 cells assessed as necrotic cells at 5 uM incubated for 24 hrs AnnexinV/ propidium iodide staining based flow cytometry (Rvb= 0.16 %); type: functional
A549 [11] = test: Induction of apoptosis in human A549 cells assessed as early apoptotic cells at 2.5 uM incubated for 24 hrs AnnexinV/ propidium iodide staining based flow cytometry (Rvb= 0.79 %); type: functional
A549 [12] = test: Induction of apoptosis in human A549 cells assessed as necrotic cells at 2.5 uM incubated for 24 hrs AnnexinV/ propidium iodide staining based flow cytometry (Rvb= 0.16 %); type: functional
A549 [13] = test: Induction of apoptosis in human A549 cells assessed as viable cells at 5 uM incubated for 24 hrs AnnexinV/ propidium iodide staining based flow cytometry (Rvb= 98.5 %); type: functional; details: read-out: Activity
A549 [14] = test: Induction of apoptosis in human A549 cells assessed as viable cells at 2.5 uM incubated for 24 hrs AnnexinV/ propidium iodide staining based flow cytometry (Rvb= 98.5 %); type: functional; details: read-out: Activity

| IC50 (HeLa [5]) | IC50 (A549 [6]) | Structure (SMILES) | inhibition at 30 µM (HeLa [1]) | inhibition at 10 µM (A549 [2]) | inhibition at 10 µM (HeLa [3]) | inhibition at 30 µM (A549 [4]) | Activity (A549 [7]) | Activity (A549 [8]) | Activity (A549 [9]) | Activity (A549 [10]) | Activity (A549 [11]) | Activity (A549 [12]) | viability at 5 µM (A549 [13]) | viability at 2.5 µM (A549 [14]) |
| --- | --- | --- | --- | --- | --- | --- | --- | --- | --- | --- | --- | --- | --- | --- |
|  |  | C=CC(=O)N1CCN(CC(=O)N2CCN(CCOc3ccc(C(=O)c4cc5ccc(N(CC)CC)cc5o4)cc3)CC2)CC1 | 32.1% | 2.3% | 18.6% | 9.3% |  |  |  |  |  |  |  |  |
|  |  | CCc1ccc(C(=O)N2CCN(CC(=O)N3CCN(CCOc4ccc(C(O)c5cc6ccc(N(CC)CC)cc6o5)cc4)CC3)CC2)cc1 (stereo not given) | 75.2% | 47.9% | 36.1% | 73.2% |  |  |  |  |  |  |  |  |
| 28.3 µM | 8.96 µM | CCN(CC)c1ccc2cc(C(O)c3ccc(OCCN4CCN(C(=O)CN5CCN(C(=O)c6cccc(C(F)(F)F)c6)CC5)CC4)cc3)oc2c1 (stereo not given) | 69.5% | 65.1% | 43.9% | 81.2% |  |  |  |  |  |  |  |  |
| > 30 µM | 0.43 µM | CCN(CC)c1ccc2cc(C(O)c3ccc(OCCN4CCN(C(=O)CN5CCN(C(=O)c6ccc(F)cc6)CC5)CC4)cc3)oc2c1 (stereo not given) | 40.6% | 80.1% | 20.4% | 83.9% | 39% | 28.5% | 18.9% | 9.18% | 5.88% | 4.26% | 23.4% | 71% |
| 14.5 µM | > 30 µM | CCc1ccc(C(=O)N2CCN(CC(=O)N3CCN(CCOc4ccc(C(=O)c5cc6ccc(N(CC)CC)cc6o5)cc4)CC3)CC2)cc1 | 81.1% | 24.7% | 42.7% | 76.7% |  |  |  |  |  |  |  |  |
|  |  | CCN(CC)c1ccc2cc(C(=O)c3ccc(OCCN4CCN(C(=O)CN5CCN(C(=O)c6ccccc6F)CC5)CC4)cc3)oc2c1 | 56.9% | 66.4% | 31.4% | 76.9% |  |  |  |  |  |  |  |  |
|  |  | C=C(C)C(=O)N1CCN(CC(=O)N2CCN(CCOc3ccc(C(=O)c4cc5ccc(N(CC)CC)cc5o4)cc3)CC2)CC1 | 3.2% | 36.1% | -2.1% | 69.8% |  |  |  |  |  |  |  |  |
| 7.09 µM | 9.17 µM | CCN(CC)c1ccc2cc(C(=O)c3ccc(OCCN4CCN(C(=O)CN5CCN(C(=O)c6ccc(C)cc6)CC5)CC4)cc3)oc2c1 | 90.1% | 54.3% | 61.4% | 62.4% |  |  |  |  |  |  |  |  |
|  |  | CCN(CC)c1ccc2cc(C(=O)c3ccc(OCCN4CCN(C(=O)CN5CCN(C(=O)c6ccc(F)cc6)CC5)CC4)cc3)oc2c1 | 57% | 29% | 26% | 45.3% |  |  |  |  |  |  |  |  |
| 8.64 µM | 7.02 µM | CCN(CC)c1ccc2cc(C(=O)c3ccc(OCCN4CCN(C(=O)CN5CCN(C(=O)c6ccc(C(F)(F)F)cc6)CC5)CC4)cc3)oc2c1 | 94.9% | 54.8% | 50.7% | 77.9% |  |  |  |  |  |  |  |  |
|  |  | CCN(CC)c1ccc2cc(C(O)c3ccc(OCCN4CCN(C(=O)CN5CCN(C(=O)c6ccccc6C(F)(F)F)CC5)CC4)cc3)oc2c1 (stereo not given) | 49.8% | 43.6% | 30.6% | 57.8% |  |  |  |  |  |  |  |  |
| 6.85 µM | 9.18 µM | C=CC(=O)N1CCN(CC(=O)N2CCN(CCOc3ccc(C(O)c4cc5ccc(N(CC)CC)cc5o4)cc3)CC2)CC1 (stereo not given) | 90.7% | 51.9% | 53.8% | 64% |  |  |  |  |  |  |  |  |
| 4.72 µM | 8.63 µM | CCN(CC)c1ccc2cc(C(O)c3ccc(OCCN4CCN(C(=O)CN5CCN(C(=O)c6ccccc6F)CC5)CC4)cc3)oc2c1 (stereo not given) | 92% | 55.3% | 79% | 75.6% |  |  |  |  |  |  |  |  |
| 11.2 µM | 21.4 µM | CCN(CC)c1ccc2cc(C(=O)c3ccc(OCCN4CCN(C(=O)CN5CCN(C(=O)c6ccc7ccccc7c6)CC5)CC4)cc3)oc2c1 | 85.3% | 30.9% | 48.7% | 78.8% |  |  |  |  |  |  |  |  |
